Measured values taken from patent US20160007585A1, “INSECT CONTROL DEVICE” (Clarke Mosquito Control Products, Inc., priority 2014, published 2016).

System: Anopheles gambiae
Test: Attraction tests in outdoor screenhouses: mosquitoes caught in MM-X or BG Sentinel traps baited with plant-based volatile organic compounds
Assay type: in vivo
Conditions: single compounds suspended in mineral oil; 300-400 released
Experimental: Attraction tests were conducted in two sizes of outdoor screenhouses (˜5.5×7 m and 11×7 m, each>3 m high) at the Mbita research station (Odhiambo Campus, Kenya) of the International Centre of Insect Physiology & Ecology (ICIPE). The screenhouses provided a semi-natural physical environment that allowed experimental control over mosquito sample size and recovery of marked and/or released mosquitoes. It was noted that fluctuations of weather conditions would cause variations in flight behavior from night to night, affecting attraction to volatile organic compounds. The walls and ceiling were lined with netting to reduce interference from ants and spiders and to prevent mosquitoes from aggregating in the vaulted ceiling. The floor was a bed of sand, dampened daily. On the floor at each corner of the screenhouse, dampened pots served as resting harborages, which the mosquitoes typically entered at dawn. When local potted plants were included in the environment, they were spaced throughout the floor.
Tested mosquitoes were the Mbita strain of Anopheles gambiae, colonized locally about 14 years ago, but with infusions of field material in some subsequent years, to maintain genetic diversity. Adults emerging each night from daily collections of pupae were fed water only and were tested in the screenhouses the following night. At this age, both sexes still have adequate deposits of somatic energy from larval feeding but will die during the following 1.5 days without nutrients. Before sunset, the volatile organic compounds baits were installed in mosquito traps, their fans were turned on, and the mosquitoes were released from a small cage prepared for that purpose.
Attraction was measured as the number of mosquitoes caught in MM-X or BG Sentinel traps baited with plant-based volatile organic compounds. The volatile organic compounds were prepared as individual compounds suspended in mineral oil, which controlled release rate according to dosage (concentration) while also retarding release rate of all compounds. Each compound was released separately from other compounds when more than one was released simultaneously. The oil-volatile organic compound suspensions were applied to two different types of release substrates: long nylon fabric strips in the exhaust tube of the trap, and short cotton wicks suspended in a wire basket beneath the exhaust tube. […] As an example of the tested volatile organic compounds, the release profiles of hexanol and phenylacetaldehyde (suspended in hexane or mineral oil, applied to nylon sock or cotton wick) as measured in a MM-X trap is shown in FIGS. 19a and 19b, respectively. The release profiles of hexanol, linalool oxide, ocimene, pinene, and 6-methyl-5-hepten-2-one are similar to phenylacetaldehyde.
The layout of traps was designed to maximize discrimination among traps releasing different plant-based volatile organic compounds or releasing none (the blank control). The small screenhouses contained 2 traps, positioned diagonally. The large screenhouses contained 4 traps. In both sizes, the traps were near the corners, but not so close to the netting walls as to interfere with mosquito flight around the traps or the free flow of the odor plume from the traps. For replicates of each test, the positions of the traps were rotated, to minimize positional bias for one of these variables: a particular compound, particular dose of a compound, or particular combination of several compounds or their proportions. In early tests, a blank trap was always included. But after establishing that a blank trap never caught more than 10 mosquitoes, out of 300-400 released, blank traps were usually replaced by one with a bait using volatile organic compounds. The number trapped out of the total number released, expressed as a percentage, was seldom calculated, because of the large and variable numbers of mosquitoes unaccounted for by trap and aspirator recapture. […]

CCCCCCO [Hexanol, hexanol]
attraction score (number of mosquitoes caught in baited trap), in words: good scores even at low dosages, with little or no improvement at higher doses

CCOC(=O)Cc1ccccc1 [ethylphenylacetate]
attraction score (number of mosquitoes caught in baited trap), in words: in higher dosages (and therefore higher release rates) gave higher attraction scores

C=CC(C)(O)CCC=C(C)C (stereo not drawn) [linalool]
attraction score (number of mosquitoes caught in baited trap), in words: in higher dosages (and therefore higher release rates) gave higher attraction scores

C=CC(C)=CCC=C(C)C [ocimene]
attraction score (number of mosquitoes caught in baited trap), in words: in higher dosages (and therefore higher release rates) gave higher attraction scores

O=CCc1ccccc1 [phenylacetaldehyde]
attraction score (number of mosquitoes caught in baited trap), in words: weak or mediocre

caryophyllene
attraction score (number of mosquitoes caught in baited trap), in words: in higher dosages (and therefore higher release rates) gave higher attraction scores
